The source of these data is patent US20100028298A1 (priority 2006, published 2010).

Numbered stars: 1 amine (or outer) side, 2 acyl side, 3 side chain; on linkers, the order of the positions; unused ones are H or OH. Bridge positions count the residues as written; N and C are the ends. Square brackets hold non-standard residues; d marks the D form. Peptide text beside a SMILES is read from it. X1 = CC1CC(C2=NC(C(=O)[*:2])CS2)N1[*:1]; NMeV = CN[CH](C(=O)O)C(C)C; X2 = O=C(C(O)CO[*:2])[*:1]; Pip = O=C(O)[CH]1CCCCN1; Dhb = C/C=C(\N)C(=O)O

For test [1], the system named is interferon beta activity in MXRage cells. As to the kind of experiment: Cell-based virus-free type I interferon activity test, Mx-RAGE fibroblasts with eGFP reporter, flow cytometry, with interferon beta. On the set-up: species or system murine. The note with it: interferon beta standard curve, vioprolide A 50 ng/ml, FIG. 4 right panel. On the technique in general: A flow cytometer gives signals particle by particle.

Test [2] deals with Vesicular stomalitis virus (VSV, ssRNA negative). It is filed as cell-based. As to conditions: MDBK cells, rhIFN-α2b alone and with 31 and 167 ng/ml vioprolide A, FIG. 5.
Test [3] relates to Herpes simplex virus strain 1 (HSV-1, dsDNA). In words: Antiviral effect on HSV-1, cytopathic effect on Vero cells. It is filed as cell-based. The note with it: Vero cells infected with 10^4 PFU/ml HSV-1, different concentrations of vioprolide A alone, FIG. 6. In general terms: Damage to the host cells serves as the signal in cytopathic effect assays.
Test [4] has as its system interferon alpha activity in MXRage cells. In words: Cell-based virus-free type I interferon activity test, Mx-RAGE fibroblasts with eGFP reporter, flow cytometry, with interferon alpha. Details: species or system murine.
Test [5] relates to human cervical carcinoma derived cell line WISH. As to the kind of experiment: Antiproliferative activity on WISH cells. In kind it is cell-based. The note with it: in the presence of rhIFN-α2b, FIG. 7. The procedure: FIG. 7: The antiproliferative effect of vioprolide A. The proliferation of WISH cells was tested at different concentrations of vioprolide A alone (grey) and in the present of IFN-α2b (black).
Further, the antiproliferative effect of vioprolide A has been determined. Using standard assays, the antiproliferative activity was evaluated with human cervical carcinoma derived cell line WISH.

On to `C/C=C1\NC(=O)C2CSC(=N2)C2CC(C)N2C(=O)C(CC(C)C)NC(=O)C(C)NC(=O)C(O)COC(=O)C(C(C)C)N(C)C(=O)C(C(C)O)NC(=O)C2CCCCN2C1=O` (stereo not shown) [vioprolide A] (AL[X1][Dhb][Pip]T[NMeV]; linker N-C via X2; configuration not given here), for which the “increase of GFP positive cells” value in test [1] was “remarkable increase”; in test [4] (interferon alpha standard curve, vioprolide A 50 ng/ml, FIG. 4 left panel), “remarkable increase”. In addition, in test [2], the “anti-viral activity of IFN on VSV (cytopathic effect)” value is reported as “able to enhance the anti-viral activity of IFN on VSV”. The “anti-viral activity on HSV-1 (cytopathic effect)” value in test [3] is reported as “anti-viral activity”. Also, in test [4] (vioprolide A 50 ng/ml, FIG. 4 left panel), the “reduction of the amount of interferon alpha to obtain the same percent of GFP positive cells” value is recorded as “about 10 fold”. Besides, in test [4] (vioprolide A 0.2 to 400 ng/ml, serial two-fold dilutions, FIG. 3), the “increase of GFP positive cells with vioprolide plus interferon type I compared to interferon type I alone” value is listed as at most 4 fold. Further, the “effect on cell growth inhibition” value in test [5] is “additive effect”.
